In experiment [1] the target is T1, human RAGE (Homo sapiens, UniProt Q15109).
T1 construct: human RAGE plasmid (including full-length human RAGE cDNA); expressed in transfected cells; host or cells: C6 glioma cells carrying pNF-κB-Luc plasmid and human RAGE plasmid
In words: RAGE agonist activity of reaction samples (37° C., 42 days), NF-κB luciferase assay in C6 glioma cells. The class given is cell-based, rat. Here is the method: Amino acid, carbohydrates and a phosphate buffer solution were charged in a 50 mL polypropylene centrifuge tube in each amount shown in Table 10, followed by sealing and stirring, and then the mixture was reacted in an incubator at 37° C. for 42 days. Next, the reactant was filtered through a 0.2 μm filter and the obtained filtrate was used as a sample. Amino acid and carbohydrates used are as follows:
(§1) Using Luciferase Assay System (manufactured by Promega Corporation), evaluation of RAGE agonist activity was performed. (Day 1) According to the methods disclosed in Diabetes, 2006, vol. 55, pp. 2510-2522, C6 glioma cells into which pNF-κB-Luc plasmid (manufactured by Stratagene Corporation) and human RAGE plasmid (including full-length human RAGE cDNA) have been introduced were seeded at 100 μL/well into a 96-well plate and cultured in a CO2 incubator until the cells were confluent. For the culture, 10% FBS/DMEM medium was used. (Day 2) The medium was removed, and after wells were washed with 300 μL of serum-free DMEM medium, 100 μL of 0.1% FBS/DMEM medium was slowly added. Then, the medium was incubated overnight in a CO2 incubator. (Day 3) The sample was diluted using the medium, and 50 μL of the diluted sample was added to each well. AGE-BSA in which AGE was formed with glyceraldehydes (50 μg/mL) was added to a control well. After incubation in a CO2 incubator for 4 hours, the medium was removed and wells were washed 2 times with 300 μL of PBS (−). Then, 25 μL of 1× lysis buffer was added on ice. After the plate was shaken for 15 seconds, 20 μL of lysate was charged in a new white plate. Further 100 μL of a luciferase assay reagent was added, and a […] was measured by a luminometer. Using 5 μl of lysate, quantitative determination of protein was also performed.
Biological proteins, carbohydrates and a phosphate buffer solution are charged in a 50 mL polypropylene centrifuge tube in each amount shown in Table 12, followed by sealing and stirring, and then the mixture was reacted in an incubator at 37° C. for 42 days. Next, the reactant was fractionated by centrifugation at 3,000 rpm for 3 hours using an ultrafiltration unit (VIVA SPIN 20, manufactured by Sartorius Corporation). The obtained low molecular weight fraction was used as a sample for determination of 3-DG, while the obtained high molecular weight fraction was used as a sample for the determination of fluorescent AGEs, pentosidine, CML, RAGE agonist activity and RAGE antagonist activity. Biological proteins and carbohydrates used are as follows:
In the same manner as in Test Example 4, except that the low molecular weight fraction prepared as mentioned above was used as a sample, quantitative determination of 3-DG was performed. In the same manner as in Test Example 4, except that the high molecular weight fraction was filtered through a 0.2 μm filter and the filtrate was used as a sample, fluorescent AGEs, pentosidine, CML, RAGE agonist activity and RAGE antagonist activity were evaluated.
Collagen, carbohydrates and a phosphate buffer solution were charged in a 50 mL polypropylene centrifuge tube in each amount shown in Table 14, followed by sealing and stirring, and then the mixture was reacted in an incubator at 37° C. for 42 days. Next, the reactant was fractionated by centrifugation at 3,000 rpm for 3 hours using an ultrafiltration unit (VIVA SPIN 20, manufactured by Sartorius Corporation). The obtained low molecular weight fraction was used as a sample for determination of 3-DG. Meanwhile, 0.4 g of a high molecular weight fraction and 8 mL of 6N hydrochloric acid were charged in an ampule and the air in the ampule was replaced with nitrogen, and then hydrolysis was performed at 110° C. for 16 hours in a heat block. After reaction, 8 mL of 5N sodium hydroxide was added, and pH was adjusted using 1N hydrochloric acid and 1N sodium hydroxide to make pH within a range of 7.2 to 7.6. Then, the solution was filtered through a 0.2 μm filter. […]

For experiment [2], the target named is T1, human RAGE. In words: RAGE antagonist activity of reaction samples (120° C., 60 minutes) mixed with AGE-BSA, NF-κB luciferase assay in C6 glioma cells. The conditions noted are these: Test Example 2. It is filed as cell-based, rat. Here is the method:
Food-derived proteins, carbohydrates and a phosphate buffer solution were charged in a 30 mL glass test tube in each amount shown in Table 6, followed by sealing and stirring, and then the mixture was reacted in an autoclave at 120° C. for 60 minutes. Next, the reactant was fractionated by centrifugation at 3,000 rpm for 3 hours using an ultrafiltration unit (VIVA SPIN 20, manufactured by Sartorius Corporation). The obtained low molecular weight fraction was used as a sample for determination of 3-DG, while the obtained high molecular weight fraction was used as a sample for the determination of fluorescent AGEs, RAGE agonist activity and RAGE antagonist activity. Food-derived proteins and carbohydrates used are as follows:
as §1, with “RAGE antagonist” for “RAGE agonist”, “diluted sample,” for “diluted sample was added to each well.”, “μg/mL) as a control, and the mixture of diluted sample and AGE-BSA were” for “μg/mL) was”, “to wells.” for “to a control well.”, “of PBS(−).” for “of PBS (−).”, “20 μl” for “20 μL”

Setting [3] is: Test Example 4, amino acid + carbohydrate, amount of protein 100 μg/mL, relative to control (AGE-BSA) = 1.
Setting [4] is: Test Example 5, bovine serum albumin + carbohydrate, protein 100 μg/mL, relative to control (AGE-BSA) = 1.
Setting [5] is: Test Example 5, human serum albumin + carbohydrate, protein 100 μg/mL, relative to control (AGE-BSA) = 1.
Setting [6] is: Test Example 5, γ-globulin + carbohydrate, protein 10 μg/mL, relative to control (AGE-BSA) = 1.
The mark [7] stands for this setting: Test Example 6, collagen + carbohydrate, protein 10 μg/mL, relative to control (AGE-BSA) = 1.
Setting [8] is: gliadin + carbohydrate, mixture of sample and AGE-BSA, protein 0.1 μg/mL, relative to control (AGE-BSA) = 1.
The mark [9] stands for this setting: lactalbumin + carbohydrate, mixture of sample and AGE-BSA, protein 10 μg/mL, relative to control (AGE-BSA) = 1.
[10] abbreviates: lactic casein + carbohydrate, mixture of sample and AGE-BSA, protein 1 μg/mL, relative to control (AGE-BSA) = 1.
[11] abbreviates: ovalbumin + carbohydrate, mixture of sample and AGE-BSA, protein 10 μg/mL, relative to control (AGE-BSA) = 1.
Setting [12] is: soybean casein + carbohydrate, mixture of sample and AGE-BSA, protein 0.1 μg/mL, relative to control (AGE-BSA) = 1.

The values that follow come from patent publication US20130287890A1, “INHIBITOR OF THE PRODUCTION OF ADVANCED GLYCATION END PRODUCTS” (UENO FINE CHEMICALS INDUSTRY, LTD., priority 2012, published 2013).

T1 sequence (Q15109 23-404): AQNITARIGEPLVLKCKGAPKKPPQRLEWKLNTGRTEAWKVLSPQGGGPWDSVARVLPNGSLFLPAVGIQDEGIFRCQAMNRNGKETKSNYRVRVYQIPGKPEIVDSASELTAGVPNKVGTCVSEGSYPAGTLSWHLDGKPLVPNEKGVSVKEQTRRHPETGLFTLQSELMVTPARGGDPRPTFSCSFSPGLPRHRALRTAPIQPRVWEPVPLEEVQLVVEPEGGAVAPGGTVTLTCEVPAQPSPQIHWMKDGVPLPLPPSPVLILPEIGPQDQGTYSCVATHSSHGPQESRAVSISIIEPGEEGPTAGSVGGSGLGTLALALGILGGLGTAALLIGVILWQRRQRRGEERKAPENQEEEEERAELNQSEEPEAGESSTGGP

As to `O=C[C@H](O)[C@@H](O)[C@H](O)[C@H](O)CO` [Glucose], the RAGE agonist activity in experiment [1] (setting [3]) was 0.06; in experiment [1] (setting [4]), 0.37; in experiment [1] (setting [5]) it was 0.01; in experiment [1] (setting [6]), 0.06; in experiment [1] (setting [7]), 0.45.
As to `OC[C@@H](O)[C@@H](O)[C@H](O)[C@@H](O)CO` [Sorbitol], the RAGE agonist activity in experiment [1] (setting [3]) is on record as 0.07; in experiment [1] (Test Example 4, amino acid, compared with the test section 2 containing fructose), “decreased”; in experiment [1] (setting [4]), 0.24; in experiment [1] (Test Example 5, bovine serum albumin, human serum albumin, γ-globulin, compared with sections containing fructose), “decreased”; in experiment [1] (Test Example 5, bovine serum albumin, human serum albumin, γ-globulin, compared with sections containing glucose) it was “decreased”; in experiment [1] (setting [5]), 0.02. In addition, the RAGE agonist activity is 0.06 in experiment [1] (setting [6]); 0.27 in experiment [1] (setting [7]); “decreased” in experiment [1] (Test Example 6, collagen, compared with sections containing glucose and fructose).
Take `O=C(CO)[C@@H](O)[C@H](O)[C@H](O)CO` [Fructose]: the RAGE agonist activity in experiment [1] (setting [3]) was 0.08; in experiment [1] (setting [4]), 0.33; in experiment [1] (setting [5]) it was 0.02; in experiment [1] (setting [6]), 0.04; in experiment [1] (setting [7]) it was 0.58.
Regarding `OC[C@H]1O[C@@](CO)(O[C@H]2O[C@H](CO)[C@@H](O)[C@H](O)[C@H]2O)[C@@H](O)[C@@H]1O` [Sucrose, reference compound], the RAGE antagonist activity in experiment [2] (setting [8]) is 1.00; in experiment [2] (setting [9]) it was 0.58; in experiment [2] (setting [10]) it was 1.50; in experiment [2] (setting [11]), 1.80; in experiment [2] (setting [12]) it was 1.01.
Take `OC[C@@H](O)[C@@H](O[C@H]1O[C@H](CO)[C@@H](O)[C@H](O)[C@H]1O)[C@H](O)[C@@H](O)CO` [Maltitol]: the RAGE antagonist activity is 0.90 in experiment [2] (setting [8]); 0.54 in experiment [2] (setting [9]); 1.42 in experiment [2] (setting [10]); 1.74 in experiment [2] (setting [11]); 0.99 in experiment [2] (setting [12]); “decreased” in experiment [2] (test sections 2 and 5 (ovalbumin, lactalbumin) compared with sections 1 and 4 containing sucrose).
